Test results as given in patent US20250241878A1, “TYROSINE AND RESVERATROL DERIVATIVES AS NOVEL MODULATORS OF CELLULAR SERINE ADP-RIBOSYLATION” (UNIVERSITY OF SOUTH CAROLINA, priority 2022, published 2025).
Like-named read-outs stand apart in the source and are kept apart here.

Legend:
Assay type in all cases: cell-based, rat
eEF2 = eEF2 phosphorylation (p-eEF2) Western blot in cortical neurons; conditions: compound alone
Method: (§1) Primary cortical neurons were dissected from E18 Sprague Dawley rat pups in Hibernate E (BrainBits®) and dissociated using the Neural Tissue Dissociation kit (Miltenyi Biotec). Minced cortices were incubated in a pre-warmed enzyme mix at 37° C. for 15 min; tissues were then triturated and strained using a 40 μm cell strainer. After washing and centrifugation, neurons were seeded in 50 μg/ml poly-D-Lysine (Sigma-Aldrich) coated tissue culture plates. NBActive-1 medium (BrainBits®) supplemented with 100 U/ml of Penicillin-Streptomycin (Life Technologies™), 2 mM L-Glutamine (Life Technologies™), and 1×N21 supplement (R&D Systems™) was used as culture medium. For preparation of culture medium containing reduced tyrosine, the components of NBActive-1 medium were altered to combined with a reduced concentration of tyrosine, as mentioned in Table 1, and was supplemented with 100 U/ml of Penicillin-Streptomycin (Life Technologies™), 2 mM L-Glutamine (Life Technologies™), and 1×N21 supplement (R&D Systems™) to obtained culture medium with reduced tyrosine. Control (non-targeting), TyrRS, and PARP1 siRNAs were obtained from Invitrogen™ (#AM4635, s443, and s130207, respectively). Rat cortical neurons at 5 DIV were transfected with 75 nM control or TyrRS siRNA using DharmaFECT™ 3 Transfection Reagent. A second transfection was done two days later using 75 nM of TyrRS siRNA, followed by cell collection or assays after another 48 hr. For PARP1 siRNA, neurons at 7 DIV were transfected with 75 nM siRNA for both control and PARP1 siRNA.
(§2) Cultured neurons (DIV 9-10) were washed once with cold 1×PBS and lysed in cell lysis buffer (20 mM Tris-HCl (pH 7.5), 150 mM NaCl, 1 mM Na2EDTA, 1 mM EGTA, 1% Triton™, 2.5 mM sodium pyrophosphate, 1 mM beta-glycerophosphate, 1 mM Na3VO4, 1 μg/ml leupeptin supplemented with protease inhibitor). The lysates were centrifuged at 10,000 RPM for 15 mins at 4° C. to separate the chromatin-bound and soluble fractions. Lysates were quantified using Bio-Rad™ Protein Assay and equal amounts of protein were loaded onto a 4 to 12% gradient gel (Invitrogen™ NuPAGE™). Protein was transferred from the gel to 0.2 μm NC membranes at 25 V for 10 mins using transfer stacks (iBlot™ 2-Invitrogen™) and blocked with 5% non-fat milk in TBST (10 mM Tris-HCl pH 8.0, 150 mM NaCl, 0.01% Tween-20) for 1 hr before application of primary antibodies. Primary and secondary antibodies were incubated overnight at 4° C. and for 1 hr at room temperature, respectively. Immobilon® ECL Ultra Western HRP Substrate (WBULS0500, Millipore™) and a luminescent image analyzer (ChemiDoc™ Imaging System, Bio-Rad™) were used to detect proteins. Quantification of western blots was done using ImageJ (Version 1.53c).

γ-H2AX = γ-H2AX foci immunostaining in cortical neurons; conditions: for γ-H2AX (DNA damage marker): compound alone
Method: (§3) Cultured cortical neurons (DIV 9-10) were fixed in 4% formaldehyde for 15 min, followed by permeabilization and blocking for 30 min in 5% BSA (PBS) and 0.1% Tween™ 20 at room temperature. Incubation with primary antibodies was done at 4° C. overnight. The names and dilutions of the primary antibodies used for IF are described in Table 3. Secondary antibodies were incubated for 1 hr at room temperature. Secondary antibodies used were Alexa Fluor® 647 (anti-chicken), Alexa Fluor® 555 (anti-mouse), Alexa Fluor® 488 (anti-rabbit) from Invitrogen™ at 1:1000 dilution. Coverslips were then mounted using DAPI (4′,6-diamidino-2-phenylindole)-supplemented mounting medium, ProLong™ Gold Antifade (Invitrogen™) and imaged with Leica DMI6000 epifluorescent microscope using oil immersion 63×/NA 1.4 objective. The quantification for total protein levels in neurons was done using ImageJ (version 1.53c), and imaging parameters were matched for exposure, gain, and offset.

neuronal chromatin = test: Chromatin fraction immunoblots of cortical neurons; conditions: compound alone
Method: as §2

cortical neurons = test: Comet assay; conditions: for DNA damage, percentage (%) of DNA in the comet tail: compound alone
Method: The cells were harvested with a cell scraper using chilled PBS and counted. The comet assay (Trevigen®, Gaithersburg, MD) was performed according to standard methods using alkaline conditions. Electrophoresis was carried out at the rate of 1.0 V/cm for 20 min. The slides were removed from the electrophoresis chamber, washed twice in deionized water for 5 min and immersed in 70% ethanol for 5 min. Subsequently, the slides were dried at 37° C. for 30 min, DNA was stained with 50 μL of SYBR™ Gold dye (Fisher Scientific, 1:10000 in Tris-EDTA buffer, pH 7.5) for 20 min in the dark at room temperature and then analyzed using an epifluorescent microscope at 10× magnification. The images were scored for comet parameters, such as tail length and tail moment (product of % of DNA in the tail and tail length), using the TriTek CometScore™ Freeware v1.5 image analysis software.

PheRSα/β = PheRSα/β protein levels in cortical neurons (Western blot)
Method: as §1, §2
(§4) The various compounds used for treatments and their stock concentrations in Table 4.

8-oxo-dG = 8-oxo-dG immunofluorescence in cortical neurons; conditions: for 8-oxo-dG (oxidative DNA damage marker): compound alone
Method: as §3

[1] = system: histone H3-Ser10-ADP-ribosylation; test: Histone H3 serine-ADP-ribosylation immunoblot in cortical neurons; conditions: compound alone
Method: FIG. 5B presents representative immunoblots and quantification of histone H3-Ser10-ADP-ribosylation levels in cortical neurons (DIV9) using anti-H3-Ser10-ADPR antibody after treatment with D-tyrosine (2.5 and 5 mM).
as §2

TyrRS = conditions: for effect on NMDA- and MPP+-mediated decrease of neuronal TyrRS: combination with NMDA or MPP+, 4 hr
Method: as §1, §2, §3, §4

Structure (SMILES)	eEF2 phosphorylation (p-eEF2) (eEF2)	PARylated proteins in the chromatin fraction (neuronal chromatin)	association of PARP1 with the chromatin (neuronal chromatin)	recruitment of ARH3 to the chromatin (neuronal chromatin)	recruitment of PARP2, HPF1 and OGG1 to the chromatin (neuronal chromatin)	DNA damage, percentage (%) of DNA in the comet tail (cortical neurons)	histone H3 serine-ADP-ribosylation [1]	effect on NMDA- and MPP+-mediated decrease of neuronal TyrRS (TyrRS)	γ-H2AX (DNA damage marker) (γ-H2AX)	8-oxo-dG (oxidative DNA damage marker) (8-oxo-dG)	other results
Oc1ccc(/C=C\c2cc(O)cc(O)c2)cc1 [cis-RSV, cis-resveratrol]	activated the dephosphorylation of eEF2	activated the de-ADP-ribosylation of the chromatin fraction	resulted in its removal from the chromatin	differential effects on the recruitment of ARH3 to the chromatin	facilitated the recruitment of PARP2 along with other DNA repair factors such as HPF1 and OGG1 to the chromatin	did not cause an increase in percentage of DNA in the comet tail	stimulated serine-ADP-ribosylation	suppressed this effect	–	–	γ-H2AX levels (γ-H2AX; added after 12 hr of tyrosine pretreatment): reduced γ-H2AX levels; effect on tyrosine-induced accumulation of γ-H2AX (γ-H2AX; combination with tyrosine): rescued tyrosine-induced accumulation of γ-H2AX and 8-oxo-dG; γ-H2AX levels after ETO-mediated DNA damage (γ-H2AX; with etoposide (ETO)): decreased levels of γ-H2AX; TyrRS in the chromatin fraction (neuronal chromatin): higher levels of TyrRS; recruitment of FEN1 to the chromatin (neuronal chromatin): decreased the recruitment of FEN1; effect on DNA damage caused by Tyr (cortical neurons; combination with Tyr): attenuated the increase in DNA damage caused by Tyr; PheRSβ and PheRSα levels (PheRSα/β; low concentration cis-RSV): increased their levels; effect on tyrosine-induced accumulation of 8-oxo-dG (8-oxo-dG; combination with tyrosine): rescued tyrosine-induced accumulation of γ-H2AX and 8-oxo-dG; TyrRS protein levels (TyrRS; cis-RSV 10-50 μM): increased TyrRS protein levels both in the nucleus and neurites; effect on trans-RSV- and tyrosine-mediated decrease in TyrRS levels (TyrRS; combination treatment): rescued the effects of trans-RSV and tyrosine-mediated decrease in TyrRS levels in a dose-dependent manner; effect on nelfinavir-mediated depletion of TyrRS (TyrRS; combination with nelfinavir): rescued
Oc1ccc(/C=C/c2cc(O)cc(O)c2)cc1 [trans-RSV, trans-resveratrol]	increased p-eEF2 levels	increased the levels of PARylated proteins in the chromatin fraction	increased the association of PARP1 with the chromatin	differential effects on the recruitment of ARH3 to the chromatin	prevented their recruitment	significantly increased DNA damage	inhibiting histone H3 serine-ADP-ribosylation	exacerbated it	caused the accumulation of γ-H2AX and 8-oxo-dG	caused the accumulation of γ-H2AX and 8-oxo-dG	PheRSα levels (PheRSα/β; high concentration trans-RSV): decreased PheRSβ, not PheRSα levels; PheRSβ levels (PheRSα/β; high concentration trans-RSV): decreased PheRSβ; TyrRS protein levels (TyrRS; high dose of trans-RSV (50 μM)): decreased it; TyrRS protein levels (TyrRS; low dose of trans-RSV (10 μm)): increased TyrRS
N[C@@H](Cc1ccc(O)cc1)C(=O)O [tyrosine, L-tyrosine]	inhibited eEF2	–	trapping of PARP1	–	–	significantly increased DNA damage	inhibiting histone H3 serine-ADP-ribosylation	–	accumulation of γ-H2AX foci	resulted in the accumulation	PheRSβ levels (PheRSα/β; compound alone): depleted PheRSβ; levels of PheRSβ (PheRSα/β; second statement of the same sentence, see doubts): did not affect the levels of PheRSβ; time until TyrRS levels were restored (TyrRS; after tyrosine treatment): 16 to 24 h; TyrRS protein levels (TyrRS; compound alone, rat cortical neurons): decreased TyrRS
